Experimental data: patent publication US10500198B2, “Bis-benzylidine piperidone proteasome inhibitor with anticancer activity” (The Johns Hopkins University, priority 2013, dated 2019)

What was measured:
HaCaT = assay: Cell viability after 48-hr treatment (Table 1); format: cell-based; details: Homo sapiens, HaCaT; 48-hr treatment; XTT assay; read-out: IC50, HaCaT
Protocol: (§1) Cells seeded at the concentration of 1,000 cells/well for HeLa, 5,000 cells/well for ES2 and HCT116 and 10,000-20,000 cells/well for other cell lines in 100 μL medium in 96-well plate were treated with RA series compounds at specified concentrations. […]

RPMI8226 = assay: Cell viability after 48-hr treatment (Table 1); format: cell-based; details: Homo sapiens, RPMI-8226, XTT assay
Protocol: as §1

SiHa = assay: Cell viability after 48-hr treatment (Table 1); format: cell-based; details: Homo sapiens, SiHa; 48-hr treatment; XTT assay; read-out: IC50, SiHa
Protocol: as §1

HT3 = assay: Cell viability after 48-hr treatment (Table 1); format: cell-based; details: Homo sapiens, HT-3; 48-hr treatment; XTT assay; read-out: IC50, HT3
Protocol: as §1

MM and HeLa cells = assay: Annexin-V flow cytometry; format: cell-based; details: 12 hr after treating
Protocol: Activation of ICE family members such as caspase-3 and -7 results in cleavage of poly ADP ribose polymerase (PARP) to 85 kDa and 25 kDa fragments and drives apoptosis.
Induction of apoptosis was determined using Annexin V-PE Apoptosis Detection Kit I (BD Pharmingen, San Diego, Calif.) according to the manufacturer's protocol.

ES-2 = assay: Cell viability after 48-hr treatment (Table 1); format: cell-based, human; details: Homo sapiens, ES-2, XTT assay
Protocol: as §1

NCl-H929 = assay: Cell viability after 48-hr treatment (Table 1); format: cell-based, human; details: Homo sapiens, XTT assay
Protocol: as §1

HOK-16B = assay: Cell viability after 48-hr treatment (Table 1); format: cell-based; details: 48-hr treatment; XTT assay; read-out: IC50, HOK-16B
Protocol: (§2) Cell viability was assayed using CellTiter 960 AQueous One Solution Reagent (Promega, Madison, Wis.). Cells seeded at the concentration of 1,000 cells/well for HeLa, 5,000 cells/well for ES2 and HCT116 and 10,000-20,000 cells/well for other cell lines in 100 μL medium in 96-well plate were treated with RA series compounds at specified concentrations. After the indicated periods, cells were incubated according to the manufacturer's protocol with the MTS labeling mixture for 1-2 hr and absorbance at 490 nm measured using a Benchmark Plus microplate spectrophotometer (BIO-RAD).

CasKi = assay: Cell viability after 48-hr treatment (Table 1); format: cell-based; details: Homo sapiens, Ca-Ski; 48-hr treatment; XTT assay; read-out: IC50, CasKi
Protocol: as §2

[1] = Complete blood counts and blood chemistry of C57BL/6 mice carrying TC-1 tumor; details: C57BL/6 mice with TC-1 tumor; nine doses every third day: RA190 40 mg/kg p.o., Bortezomib 1.5 mg/kg i.p.; mean ± SD, n = 3;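 also: blood drawn from the heart after euthanasia, cell counts read on an automated hemocytometer, heparinized plasma analyzed on an automated clinical chemistry analyzer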
SKOV3 = assay: Cell viability after 48-hr treatment (Table 1); format: cell-based; details: Homo sapiens, SK-OV-3; 48-hr treatment; XTT assay; read-out: IC50, SKOV3
Protocol: (§3) Cell viability was assayed using CellTiter 960 AQueous One Solution Reagent (Promega, Madison, Wis.). Cells seeded at the concentration of 1,000 cells/well for HeLa, 5,000 cells/well for ES2 and HCT116 and 10,000-20,000 cells/well for other cell lines in 100 μL medium in 96-well plate were treated with RA series compounds at specified concentrations. […]

MM.1S = assay: Cell viability after 48-hr treatment (Table 1); format: cell-based; details: Homo sapiens, MM1.S, XTT assay
Protocol: as §3

C33A = assay: Cell viability after 48-hr treatment (Table 1); format: cell-based; details: Homo sapiens, C-33-A; 48-hr treatment; XTT assay; read-out: IC50, C33A
Protocol: as §3

FaDu = assay: Cell viability after 48-hr treatment (Table 1); format: cell-based; details: Homo sapiens, FaDu; 48-hr treatment; XTT assay; read-out: IC50, FaDu
Protocol: as §3

4UbFL reporter = assay: Proteasome inhibition in vivo (4UbFL reporter bioluminescence); details: i.m. electroporated 4UbFL; RA190 40 mg/kg i.p., bortezomib 1.5 mg/kg i.p.
Protocol: After the indicated time points of treatment, bioluminescence was measured by injection of luciferin and imaging with an IVIS 200 (fold change±SD, *p<0.05, **p<0.01).
Two hours after gene gun delivery of the plasmid or one day post electroporation, mice were injected i.p. with 100 uL of luciferin (3 mg/mL) and anesthetized with isoflurane and optical imaging was performed for basal level luciferase expression. Images were acquired for 10 min with a Xenogen IVIS 200 (Caliper, Hopkinton, Mass.). Equally sized areas were analyzed using Living Image 2.20 software.

OVCAR3 = assay: Cell viability after 48-hr treatment (Table 1); format: cell-based, human; details: Homo sapiens, OVCAR-3, XTT assay
Protocol: as §3

HeLa = assay: Cell viability after 48-hr treatment (Table 1); format: cell-based, human; details: Homo sapiens, HeLa; 48-hr treatment; XTT assay; read-out: IC50, HeLa
Protocol: as §3

HeLa cells [2] = assay: Drug combination index assay; format: cell-based, human; details: Homo sapiens, 48 hr, read-out: IC50 (single agent, Compusyn)
Protocol: The combination indices and a normalized isobologram were calculated using Compusyn software (www.combosyn.com).

HeLa cells [3] = assay: Cell surface HSP90 staining; format: cell-based, human; details: 24 hr
From the text: Cell surface HSP90 was detected by staining with purified anti-HSP90 mAb (Stressgen), followed by PE-conjugated anti-mouse IgG1. The data were acquired with a FACSCalibur and analyzed using CellQuest software.

purified 20S proteasomes = purified 20S proteasomes (Homo sapiens, UniProt P28072+P28074+Q99436); assay: 20S proteolytic activity assay; format: biochemical; details: 1 μM, 30 min
Protocol: Actin was used as a loading control. […] In FIG. 9C-E, purified 20S proteasomes were treated for 30 min with or without compounds (1 μM) prior to the addition of the specific fluorogenic substrate for chymotryptic (9C), tryptic (9D) or PGPH (9E) hydrolytic proteasome capacities. […] DMSO was added to all samples to a final concentration of 0.1% (upper panel). The effect of DMSO is highlighted by including ubiquitin—AMC (0.5 μM) hydrolysis with 2 nM UCH37 lacking DMSO (orange, bottom panel). In FIG. 9H, purified 19S RP (500 nM) in buffer was treated with corresponding compounds 30 min at 37° C. and AMC cleavage was measured with a fluorometer for 20 min. Ubal was used as a positive control.
Release of free AMC by the enzyme reaction was determined by measuring its fluorescence at 380 nm (excitation) and 440 nm (emission). The graphs shown are representative of at least three independent determinations and each data point is the mean of ±SD of triplicate determinations.
20S proteasome cleaves the chymotryptic substrate and releases fluorescent AMC.

[4] = test system: HCC 1806, HS578T, BT549 and MB-231 breast cancer cells; assay: Viability of triple negative breast cancer cell lines; format: cell-based; details: 48 hours
Protocol: To test the efficacy of various RA compound derivatives on the viability of breast cancer cells, breast cancer cell lines were treated in vitro with varying concentrations of selected compounds. […] FIGS. 16A-16E are a series of data graphs and a western blot showing the efficacy of select compounds against various breast cancer cell lines. […] Briefly HS578T cell lysate was incubated with corresponding compounds for the period of 1 hr at 4 C and subjected to Western blot analysis and probed for HRP-Streptavidin.

RPN13 = molecular target: T1, RPN13 (Homo sapiens, UniProt Q16186); assay: Biotin labeling assay; format: binding; details: cell lysate or purified RP, streptavidin-peroxidase blot
T1 construct: endogenous in cells; host or cells: HeLa, HS578T cell lysate
Protocol: FIGS. 10 A-10E show a series of graphs and immunoblots showing the effects of several compounds on cell viability and proteasome activity. […] 10B and 10C show immunoblots of the proteasome activity of cell lines treated with the indicated compounds. […] IC50 values were determined in triplicate. In FIG. 10B, HeLa cells were treated for 12 hr and the cell lysate was subjected to immunoblot analysis with anti-Ubiquitin antibody. In FIG. 10C, SiHa cells were treated with the indicated compounds for 12 hr and the lysate subjected to Western blot analysis with anti-Ubiquitin antibody. HeLa cell lysate was treated with RA190B, subjected to SDS-PAGE, and probed with streptavidin-peroxidase following protein transfer to a polyvinylidene difluoride (PVDF) membrane. The streptavidin-peroxidase bound to biotinylated cellular proteins, but a striking new band at 42 kDa appeared in RA190B-treated samples (FIG. 2A). […] IC50 values were determined in triplicate.
To eliminate the possibility that another RP component was required for RA190B interaction, RPN13 or an irrelevant protein (L2) was overexpressed in bacteria. Cell lysate harvested from bacteria either with or without […] induction of ectopic protein expression was labeled with RA190B and probed by blotting with streptavidin-peroxidase. RA190B reacted strongly with a 42 kDa protein only in lysates of bacteria expressing RPN13 (FIG. 2D). […] 800 μL fractions were collected and alternate fractions (1,3,5,7,9,11,13,15,17) were analyzed for the presence of proteasomal proteins (RPN13, RPN2, RPN1 and UCH37) by Western blot analysis.
Human cells (5×10^6 HeLa or 293TT cells) were lysed using MPER (Pierce) lysis buffer (500 μL). RPN13 or HPV L2 transformed bacterial cells (500 μL of culture) were centrifuged to harvest the cells which were re-suspended in 500 μL BPER (Pierce). Cell lysates were centrifuged at 10,000 rpm briefly (2 min) at 4° C. to remove cell debris. Lysate supernatant (200 μL) was pre cleared with streptavidin dyna beads (20 μL) for 1 h at 4° C. to remove non-specific biotin binding and incubated with compounds (indicated concentrations or 20 μM) at 4° C. for 1 hr. An equal amount of each sample (20 μL of lysate) was mixed with an equal volume of Laemmli sample buffer (20 μL) (BioRad) and was boiled for 5 min. […] (24 V). Membrane was blocked with 5% BSA in PBST for 1 hr at room temperature and washed for 20 min (3×PBST). Then the membrane was probed with HRP-streptavidin (1:10,000 in PBST) for 1 hr at room temperature and washed for 30 min (3×PBST) and developed using HyGLO chemiluminescent detection reagent (Denville) for biotin recognition. For the purified enzyme assay, 19S purified proteasome (R&D Systems, Cat. No. E-366) (500 ng) in 19S buffer (20 mM HEPES, 20 mM NaCl, 1 mM DTT, 15% Glycerol) was incubated with compounds (20 μM) for 1 hr at room temperature and mixed with an equal volume of Laemmli sample buffer (20 μL) (BioRad) and was boiled for 5 min. Each sample was loaded onto gel and followed the western blot protocol mentioned above.
Purified 19S proteasome (500 ng) was incubated with corresponding compounds for 30 min and subjected to immunoblot and probed with HRP-conjugated streptavidin. In FIG. 23, the single band at 42 KDa indicates Rpn13 binding to 195. RA183B (20 μM) is used as positive control for Rpn13 binding. Competition experiments were done with RA183 (100 μM) and RA195 (100 μM) along with RA195B (20 μM).

T1 sequence (Q16186 whole entry): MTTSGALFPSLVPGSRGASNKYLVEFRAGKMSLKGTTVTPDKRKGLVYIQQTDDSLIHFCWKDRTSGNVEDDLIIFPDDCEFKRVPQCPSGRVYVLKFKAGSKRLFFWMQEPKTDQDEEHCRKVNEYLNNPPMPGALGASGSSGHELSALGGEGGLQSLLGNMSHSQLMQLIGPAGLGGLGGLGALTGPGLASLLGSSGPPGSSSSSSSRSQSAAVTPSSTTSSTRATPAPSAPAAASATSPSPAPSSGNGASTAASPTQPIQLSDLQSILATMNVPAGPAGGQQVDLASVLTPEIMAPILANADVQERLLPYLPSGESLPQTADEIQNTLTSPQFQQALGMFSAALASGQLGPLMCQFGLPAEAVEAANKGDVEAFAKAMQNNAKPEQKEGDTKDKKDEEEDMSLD

SMILES: CC(C)C[C@H](NC(=O)[C@H](Cc1ccccc1)NC(=O)c1cnccn1)B(O)O [Bortezomib, reference compound]
- IC50 (HaCaT): < 2500 nM
- IC50 (RPMI8226): 10 nM
- IC50 (SiHa): 1000 nM
- IC50 (HT3): < 2500 nM
- apoptosis (Annexin-V) (MM and HeLa cells): trigger extensive apoptosis
- IC50 (ES-2): 20 nM
- IC50 (NCl-H929): 5 nM
- IC50 (HOK-16B): 20 nM
- IC50 (CasKi): 50 nM
- ALBNEW (Albumin) [1]: 2.50 ± 0.10
- ALPNEW (Alkaline Phosphatase) [1]: 49 ± 5.29
- ALTNEW (Alanine Aminotransferase) [1]: 26.33 ± 2.51
- AMYL (Amylase) [1]: 473 ± 57.86
- ASTNEW (Aspartate aminotransferase) [1]: 53 ± 18.52
- BA(Basophils) [1]: 0.07 ± 0.06
- BUNNEW (Blood Urea Nitrogen) [1]: 22.66 ± 5.13
- CA (Calcium) [1]: 8.83 ± 0.60
- CHOL (Cholesterol) [1]: 69 ± 7.93
- CK_NEW (Creatinine Kinase) [1]: 93.66 ± 3.52
- CREAT (Creatinine) [1]: 0.33 ± 0.05
- EO (Eosinophils) [1]: 0.64 ± 0.48
- GGTNEW (Gamma-Glutamyl Transferase) [1]: 5.00 ± 0.67
- GLU (Glucose) [1]: 128 ± 20.29
- HCT(Hematocrit) [1]: 42.36 ± 4.15
- HDLNEW (High Density Lipoprotein) [1]: 28.33 ± 4.61
- Hb (Hemoglobin) [1]: 11.3 ± 0.70
- LDH (lactate Dehydrogenase) [1]: 245.33 ± 96
- LY(Lymphocytes) [1]: 2.12 ± 1.83
- MCHC (mean corpuscular hemoglobin concentration) [1]: 26.73 ± 1.16
- MCV (Mean corpuscular Volume) [1]: 55.66 ± 1.72
- MO(Monocytes) [1]: 0.20 ± 0.13
- MPV (Mean Platelet Volume) [1]: 5.40 ± 0.10
- NE(Neutrophils) [1]: 24.06 ± 15.07
- PLT (Platelet) [1]: 1346 ± 87.5
- RDW (Red Blood Cell Distribution Width) [1]: 20.13 ± 0.61
- TBIL1 (Total bilirubin) [1]: 0.26 ± 0.05
- TPROT (Total protein) [1]: 4.40 ± 0.26
- TRIG (Triglycerides) [1]: 56.66 ± 15.88
- UA (Uric Acid) [1]: 2.73 ± 0.87
- WBC(White Blood Cells) [1]: 24.85 ± 23.94
- IC50 (SKOV3): < 2500 nM
- IC50 (MM.1S): 5 nM
- IC50 (C33A): < 2500 nM
- IC50 (FaDu): < 2500 nM
- bioluminescence compared to vehicle alone, 4 hr after treatment (4UbFL reporter): 2 fold
- increase in bioluminescence, one day post-treatment (4UbFL reporter): 4 fold
- IC50 (OVCAR3): < 2500 nM
- IC50 (HeLa): 30 nM
- IC50 (HeLa cells [2]): 21.7 nM
- cells with cell-surface HSP90 (HeLa cells [3]): 12.8%
- chymotryptic activity of the 20S proteasome (Suc-LLVY-AMC) (purified 20S proteasomes): inhibits

SMILES: C=CC(=O)N[C@@H](Cc1ccccc1)C(=O)N1C/C(=C\c2ccc(Cl)c(Cl)c2)C(=O)/C(=C/c2ccc(Cl)c(Cl)c2)C1 [RA190Acr]
- potency relative to RA190 [4]: potency similar to RA190
- labeling of / competition for RPN13 (42 kDa band) (RPN13): competes the binding of RA190B to RPN13
